Read-outs that look alike come from different tables or passages of the source.
Key:
TAAR1 = molecular target: T1, TAAR1 (Homo sapiens, UniProt Q96RJ0); test: BRET-based cellular cAMP (EPAC biosensor) assay of TAAR1 agonism in transfected HEK-293 cells; conditions: for Emax: HEK293, read-out: Emax: maximum observed activation of TAAR1 relative to that observed for 1 μM of β-PEA; for Emax: maximum observed activation of TAAR1 relative to that observed for 1 μM of β-PEA: relative to 1 μM β-PEA, mean from 3 BRET assays, errors ±5–10%
T1 sequence (Q96RJ0 1-339): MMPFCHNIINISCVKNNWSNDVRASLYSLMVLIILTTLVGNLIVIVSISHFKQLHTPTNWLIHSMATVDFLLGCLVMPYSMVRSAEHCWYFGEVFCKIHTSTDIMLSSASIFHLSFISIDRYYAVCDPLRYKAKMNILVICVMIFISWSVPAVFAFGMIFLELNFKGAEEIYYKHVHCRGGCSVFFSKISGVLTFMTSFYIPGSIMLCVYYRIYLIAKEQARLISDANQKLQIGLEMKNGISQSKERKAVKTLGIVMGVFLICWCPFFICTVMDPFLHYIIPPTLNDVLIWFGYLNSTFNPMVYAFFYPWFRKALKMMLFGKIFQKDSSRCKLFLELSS

[1] = TAAR1 activation, BRET assay, HEK-293, mean from 3 assays

Compound | melting point [°C] | EC50 (TAAR1) [nM] | Emax (TAAR1) [%] | EC50 (TAAR1; [1]) | Emax: maximum observed activation of TAAR1 relative to that observed for 1 μM of β-PEA (TAAR1)
Cl.NCCc1nnc(-c2cccc([N+](=O)[O-])c2)[nH]1 [Compound 36, 2-(5-(3-Nitrophenyl)-4H-1,2,4-triazol-3-yl)ethan-1-amine Hydrochloride] | 214 to 216 | 440 | 110 |  | 
Cc1ccc(-c2nnc(CCN)[nH]2)cc1C.Cl [Compound 37, 2-(5-(3,4-Dimethylphenyl)-4H-1,2,4-triazol-3-yl)ethan-1-amine Hydrochloride] | 231 to 234 | > 1000 | 70 |  | 
Cl.NCCc1nnc(-c2cnccn2)[nH]1 [Compound 38, 2-(5-(Pyrazin-2-yl)-4H-1,2,4-triazol-3-yl)ethan-1-amine Hydrochloride] | 184 to 186 |  |  | inactive | inactive
Cl.NCCc1nnc(-c2ccccc2OC(F)(F)F)[nH]1 [Compound 39, 2-(5-(2-[Trifluoromethoxy]phenyl)-4H-1,2,4-triazol-3-yl)ethan-1-amine Hydrochloride] | 208 to 211 |  |  | inactive | inactive
CCCCOc1ccc(-c2nnc(CCN)[nH]2)cc1.Cl [Compound 40, 2-(5-(4-Butoxyphenyl)-4H-1,2,4-triazol-3-yl)ethan-1-amine Hydrochloride] | 205 to 207 | 34 | 107 | double-digit nanomolar range | 
Cl.NCCc1nnc(-c2cccc(I)c2)[nH]1 [Compound 41, 2-(5-(3-Iodophenyl)-4H-1,2,4-triazol-3-yl)ethan-1-amine Hydrochloride] | 224 to 225 | 890 | 80 |  | 
Cc1cc(-c2nnc(CCN)[nH]2)ccc1I.Cl [Compound 42, 2-(5-(4-Iodo-3-methylphenyl)-4H-1,2,4-triazol-3-yl)ethan-1-amine Hydrochloride] | 225 to 227 | > 1000 | 76 |  | 
Cl.NCCc1nnc(-c2ccc(OCc3ccccc3F)cc2)[nH]1 [Compound 43, 2-(5-(4-[(2-Fluorobenzyl)oxy]phenyl)-4H-1,2,4-triazol-3-yl)ethan-1-amine Hydrochloride] | 232 to 235 | 45 | 114 |  | 
Cl.NCCc1nnc(-c2ccc(OCc3cccc(F)c3)cc2)[nH]1 [Compound 44, 2-(5-(4-[(3-Fluorobenzyl)oxy]phenyl)-4H-1,2,4-triazol-3-yl)ethan-1-amine Hydrochloride] | 214 to 216 | 30 | 112 |  | 
Cl.NCCc1nnc(-c2ccc(OCc3ccc(F)cc3)cc2)[nH]1 [Compound 45, 2-(5-(4-[(4-Fluorobenzyl)oxy]phenyl)-4H-1,2,4-triazol-3-yl)ethan-1-amine Hydrochloride] | 220 to 222 | 22 | 114 |  | 
Cc1cc(-c2nnc(CCN)[nH]2)ccc1OCc1ccccc1F.Cl [Compound 46, 2-(5-(4-[(2-Fluorobenzyl)oxy]-3-methylphenyl)-4H-1,2,4-triazol-3-yl)ethan-1-amine Hydrochloride] | 234 to 236 | 398 | 82 |  | 
Cc1cc(-c2nnc(CCN)[nH]2)ccc1OCc1cccc(F)c1.Cl [Compound 47, 2-(5-(4-[(3-Fluorobenzyl)oxy]-3-methylphenyl)-4H-1,2,4-triazol-3-yl)ethan-1-amine Hydrochloride] | 215 to 216 | 142 | 106 |  | 
Cc1cc(-c2nnc(CCN)[nH]2)ccc1OCc1ccc(F)cc1.Cl [Compound 48, 2-(5-(4-[(4-Fluorobenzyl)oxy]-3-methylphenyl)-4H-1,2,4-triazol-3-yl)ethan-1-amine Hydrochloride] | 182 to 183 | 163 | 98 |  | 
Cc1ccc(Oc2ccc(-c3nnc(CCN)[nH]3)cc2)cc1C.Cl [Compound 51, 2-(5-(4-[3,4-Dimethylphenoxy]phenyl)-4H-1,2,4-triazol-3-yl)ethan-1-amine Hydrochloride] | 201 to 203 | 900 | 77 |  | 
Cc1ccc(Oc2cccc(-c3nnc(CCN)[nH]3)c2)c(C)c1.Cl.Cl [Compound 52, 2-(5-(3-[2,4-Dimethylphenoxy]phenyl)-4H-1,2,4-triazol-3-yl)ethan-1-amine Hydrochloride Hydrochloride] | 308 to 310 | > 1000 | 79 |  | 
Cl.NCCc1nnc(-c2cccc(Oc3ccccc3Cl)c2)[nH]1 [Compound 53, 2-(5-(3-[2-Chlorophenoxy]phenyl)-4H-1,2,4-triazol-3-yl)ethan-1-amine Hydrochloride] | 202 to 210 | 847 | 71 |  | 
Cc1ccc(Oc2ccc(-c3nnc(CCN)[nH]3)cc2)cc1.Cl [Compound 54, 2-(5-(4-[4-Methylphenoxy]phenyl)-4H-1,2,4-triazol-3-yl)ethan-1-amine Hydrochloride] | 234 to 236 | 150 | 94 |  | 
Cl.NCCc1nnc(-c2cccc(O)c2)[nH]1 [Compound 55, 3-(5-(2-Aminoethyl)-4H-1,2,4-triazol-3-yl)phenol Hydrochloride] | 234 to 235 | > 1000 | 88 |  | 
Cl.NCCc1nnc(-c2ccc(OCc3ccccc3F)c(I)c2)[nH]1 [Compound 56, 2-(5-(4-[(2-Fluorobenzyl)oxy]-3-iodophenyl)-4H-1,2,4-triazol-3-yl)ethan-1-amine Hydrochloride] | 208 to 209 | 316 | 87 |  | 
Cc1cc(-c2nnc(CCN)[nH]2)ccc1O.Cl [Compound 57, 4-(5-(2-Aminoethyl)-4H-1,2,4-triazol-3-yl)-2-methylphenol Hydrochloride] | 158 to 160 | > 1000 | 90 |  | 
COc1ccc(-c2ccc(-c3nnc(CCN)[nH]3)cc2)cc1.Cl [Compound 58, 2-(5-(4′-Methoxy-(1,1′-biphenyl)-4-yl)-4H-1,2,4-triazol-3-yl)ethan-1-amine Hydrochloride] | 300 to 301 | 6 | 97 |  | 
Cl.NCCc1nnc(-c2ccc(-c3ccc(OC(F)(F)F)cc3)cc2)[nH]1 [Compound 59, 2-(5-(4′-Trifluoromethoxy-(1,1′-biphenyl)-4-yl)-4H-1,2,4-triazol-3-yl)ethan-1-amine Hydrochloride] | 299 to 300 | 13 | 95 |  | 
Cl.NCCc1nnc(-c2ccc(-c3cccc(F)c3)cc2)[nH]1 [Compound 60, 2-(5-(3′-Fluoro-(1,1′-biphenyl)-4-yl)-4H-1,2,4-triazol-3-yl)ethan-1-amine Hydrochloride] | 260 to 262 | 26 | 95 |  | 
Cl.NCCc1nnc(-c2ccc(-c3ccc(F)cc3F)cc2)[nH]1 [Compound 61, 2-(5-(2′,4′-Difluoro-(1,1′-biphenyl)-4-yl)-4H-1,2,4-triazol-3-yl)ethan-1-amine Hydrochloride] | 251 to 253 | 18 | 93 |  | 
Cl.NCCc1nnc(-c2ccc(-c3cccc(C(F)(F)F)c3)cc2)[nH]1 [Compound 63, 2-(5-(3′-Trifluoromethyl-(1,1′-biphenyl)-4-yl)-4H-1,2,4-triazol-3-yl)ethan-1-amine Hydrochloride] | 210 to 212 | 250 | 76 |  | 
COc1ccc(-c2ccc(-c3nnc(CCN)[nH]3)cc2)cc1OC.Cl [Compound 64, 2-(5-(3′,4′-Dimethoxy-(1,1′-biphenyl)-4-yl)-4H-1,2,4-triazol-3-yl)ethan-1-amine Hydrochloride] | 199 to 201 | 185 | 104 |  | 
Cl.NCCc1nnc(-c2ccc(-c3cc(F)cc(F)c3)cc2)[nH]1 [Compound 65, 2-(5-(3′,5′-Difluoro-(1,1′-biphenyl)-4-yl)-4H-1,2,4-triazol-3-yl)ethan-1-amine Hydrochloride] | 260 to 262 | 13 | 105 |  | 
Cl.NCCc1nnc(-c2cccc(-c3ccc(OC(F)(F)F)cc3)c2)[nH]1 [Compound 67, 2-(5-(4′-(Trifluoromethoxy)-(1,1′-biphenyl)-3-yl)-4H-1,2,4-triazol-3-yl)ethan-1-amine Hydrochloride] | 253 to 257 | 96 | 94 |  | 
